Measured values from ChEMBL document CHEMBL1123292, “Synthesis and antimitogenic activities of four analogues of cyclosporin A modified in the 1-position” (J Med Chem, 1986).
pIC50: −log10 of the molar value.

Columns and labels:
[1] = inhibitory concentration against Con A stimulated thymocytes; assay type: functional
[2] = Inhibitory concentration against Con A stimulated thymocytes; assay type: functional

**Q.** With CC[C@@H]1NC(=O)[C@H]([C@@H](C)O)N(C)C(=O)[C@H](C(C)C)N(C)C(=O)[C@H](CC(C)C)N(C)C(=O)[C@H](CC(C)C)N(C)C(=O)[C@@H](C)NC(=O)[C@H](C)NC(=O)[C@H](CC(C)C)N(C)C(=O)[C@H](C(C)C)NC(=O)[C@H](CC(C)C)N(C)C(=O)CN(C)C1=O as the molecule, how does the pIC50 [1] read?
**A.** 5.10

**Q.** With CC[C@@H]1NC(=O)[C@H](CC)N(C)C(=O)[C@H](C(C)C)N(C)C(=O)[C@H](CC(C)C)N(C)C(=O)[C@H](CC(C)C)N(C)C(=O)[C@@H](C)NC(=O)[C@H](C)NC(=O)[C@H](CC(C)C)N(C)C(=O)[C@H](C(C)C)NC(=O)[C@H](CC(C)C)N(C)C(=O)CN(C)C1=O as the molecule, how does the pIC50 [2] read?
**A.** 4.82

**Q.** With CCCCC(C)[C@@H](O)[C@H]1C(=O)N[C@@H](CC)C(=O)N(C)CC(=O)N(C)[C@@H](CC(C)C)C(=O)N[C@@H](C(C)C)C(=O)N(C)[C@@H](CC(C)C)C(=O)N[C@@H](C)C(=O)N[C@H](C)C(=O)N(C)[C@@H](CC(C)C)C(=O)N(C)[C@@H](CC(C)C)C(=O)N(C)[C@@H](C(C)C)C(=O)N1C (some centres undefined) as the molecule, how does the pIC50 [2] read?
**A.** 8.00

**Q.** With CC[C@@H]1NC(=O)[C@H]([C@H](O)C(C)C)N(C)C(=O)[C@H](C(C)C)N(C)C(=O)[C@H](CC(C)C)N(C)C(=O)[C@H](CC(C)C)N(C)C(=O)[C@@H](C)NC(=O)[C@H](C)NC(=O)[C@H](CC(C)C)N(C)C(=O)[C@H](C(C)C)NC(=O)[C@H](CC(C)C)N(C)C(=O)CN(C)C1=O as the molecule, how does the pIC50 [2] read?
**A.** 6.22
